According to patent US5919701A, “Oligonucleotides with activity against human immunodeficiency virus” (priority 1997, dated 1999):

How the values were obtained:
[1] = tested on: replication defective HIV generated by 8e5 cells; assay: p24 production by 8e5 cells (p24 capture ELISA of cell lysates); assay type: cell-based, HIV; human T-cell line 8e5; settings: for inhibiting p24 production (in words): summary of Table 3; for inhibition / p24 production: range over experiments
Procedure: The effect of several phosphorothioate antisense oligonucleotides on HIV replication was determined by measuring p24 (an HIV-specific polypeptide) produced by 8e5 cells. The 8e5 cell line is a human T-cell line that generates replication defective HIV (Folks et al. U.S. Pat. No. 4,752,565). The defective HIV contains a single integrated provirus that expresses all HIV proteins at levels typically observed in chronically infected cell lines except those encoded by pol. This defect is due to a single base insertion that causes a frame shift mutation in pol.
Oligonucleotides having phosphorothioate linkages were synthesized according to Bhatt supra. Synthesized oligonucleotides were purified using HPLC, extracted with ethyl acetate, ethanol precipitated, washed with 80% ethanol and suspended in sterile water to generate high concentration stock solutions that facilitated small volume addition (2-20 μl).
Phosphorothioate antisense oligonucleotides were added directly to 8e5 cultures. Sterile water and non-specific phosphorothioate oligonucleotides were utilized as controls. The cultures were harvested after 4 days, and the viable cell count and production of p24 antigen were determined. Cell lysates were prepared by spinning down cells from 2 ml wells at 1000 rpm for 10 minutes at 4° C. using a Beckman J-10, and removing the supernatant. The cells were then washed with 5 ml of Hanks balanced salt solution (Gibco) or sterile saline solution (0.9% NaCl), and spun down at 1000 rpm for 10 minutes at 4° C. using a Beckman J-10. The cells were resuspended in 300 μl of TSM (10 mM Tris-HCl pH 7.5, 150 mM NaCl, 2 MM MgCl2) with 0.5% NP-40, and incubated on ice for 5 minutes. The nuclei and cellular debris were then spun down at 2000 rpm using a Beckman J-10. The amount of p24 antigen was determined in cell lysates using a p24 capture ELISA (American Biotechnologies, Inc.).
The ELISA assay for p24 was selected as a measure of HIV replication because expression of tat and rev are required for efficient p24 production. The percentage of HIV p24 production was calculated as p24/cell production by antisense treated cells divided by p24/cell production by control treated cells. Control treated cells were treated with a random control phosphorothioate oligonucleotide (SEQ. ID. NO. 47: AGGCTTCATCACGTGGACATTGACG).

[2] = tested on: HIV-1 (LAI); assay: p24 assay, PBMC infected with HIV-1 (LAI); assay type: cell-based, HIV-1; PBMC
[3] = tested on: HIV-1 (LAI); assay: Plaque assay, HeLa-CD4 cells infected with HIV-1 (LAI); assay type: cell-based, HIV-1; HeLa-CD4 cells; settings: HeLa-CD4, HIV-1 (LAI), plaques formed
Procedure: (§1) HeLa-CD4 cells were tested using a plaque assay as described below. Specific cells (as described in Table 4) were detached using trypsin-EDTA for 8-10 minutes at 37° C. The cells were then centrifuged at 100 rpm for 10 minutes. Cells were resuspended in 5-10 ml of maintenance medium (Dulbecco's Modified Eagle Medium ("DMEM") containing 10% fetal calf serum, […], […], and 2 mM glutamine). Cells were maintained by splitting the culture once weekly into two 75 cm^2 T-flasks at a concentration of 3×10^4 cells/ml in a total volume of […] maintenance medium.
(§2) On day 0, the cells were plated into the wells of a 24 well tissue culture plate (Falcon #3047) at a concentration of 2.4×10^4 cells per well. The cells were incubated overnight at 37° C. The next day the medium was aspirated, and 200 μl of HIV virus at a multiplicity of infection ("MOI") of 0.03 was added to each well. The plates were then incubated for 2 hours at 37° C. After the 2 hour incubation, the cells were treated with 800 μl of drug at a concentration (in DMEM) of 1.25× of the final concentration.
(§3) The treated cells were incubated for 3 days at 37° C. On day 4 the plate was fixed with 1 ml/well of 100% methanol for 15 minutes. The wells were then aspirated and 0.5 ml of 0.3% crystal violet stain was added to the wells. […] Plaques were counted using a microscope. […]

[4] = tested on: HIV-2 (ROD); assay: Plaque assay, HeLa-CD4 cells infected with HIV-2 (ROD); assay type: cell-based, HIV-2; HeLa-CD4 cells; settings: HeLa-CD4, HIV-2 (ROD), plaques formed
Procedure: as §1, §2, §3

[5] = tested on: human bone marrow cells; assay: Cytotoxicity: colony formation of human bone marrow cells; assay type: cell-based; settings: agar medium with G-CSF, eight days in culture
Procedure: The cytotoxicity of the test oligonucleotides was determined in a system using primary human blood cells using techniques known to those of skill in the art to measure cytotoxicity of anti-neoplastic agents. Human bone marrow cells were harvested and washed in an isotonic solution, then incubated in tissue culture medium containing 0.3% (w/v) agar, 20% (v/v) fetal calf serum, and 10 ng/ml granulocyte-colony stimulating factor with varying amounts of the two test oligonucleotides. The number of colonies formed were measured after eight days in culture. The IC50 for colony formation in this experiment was 2-3 μM for SEQ. ID. NO: 18 and 20-30 μM for SEQ. ID. NO: 22.

[6] = tested on: HIV patient isolates (AO18); assay: Plaque assay, HeLa-CD4 cells infected with patient isolates (AO18); assay type: cell-based, HIV; HeLa-CD4 cells; settings: plaques formed
Procedure: as §1, §2, §3

[7] = tested on: HIV patient isolates (PO22); assay: Plaque assay, HeLa-CD4 cells infected with patient isolates (PO22); assay type: cell-based, HIV; HeLa-CD4 cells; settings: plaques formed
Procedure: as §1, §2, §3

[8] = In vivo mouse study: blood parameters, body weight and organ morphology; settings: mice, 100 mg/kg
Procedure: In vivo experiments were also performed using rodent models. These experiments focused on the potential for gross morphological changes in blood tissue upon administration of a phosphorothioate linked oligonucleotide having the nucleic acid sequence of SEQ. ID. NO: 18 (in a solution of PBS). Three mice were given the oligonucleotide at a dose of 100 mg/kg body weight. Four control mice were given PBS alone. Blood samples were taken from each animal at t=0, and at 24 hours each animal was sacrificed and the organs removed. The experimental findings with regard to blood parameters are shown in Table 5, and the results obtained upon visual inspection of the organs are shown in Table 6.

[9] = 2 μM, 4 days, Table 2, relative to cells treated with random control oligonucleotide SEQ. ID. NO. 47
[10] = 10 μM, 4 days, Table 2, relative to cells treated with random control oligonucleotide SEQ. ID. NO. 47
[11] = 10 μM, Table 3 (small length oligonucleotides)
[12] = 20 μM, Table 3 (small length oligonucleotides)

Question: With “TTGGGAGGTG GGTTGCTTTG (TTGGGAGGTGGGTTGCTTTG; chemistry not given here) [SEQ. ID. NO. 14]” as the molecule, how does the “% p24 production” value [1, 9] read?
Answer: 103%

Question: And the “% p24 production” value [1, 10]?
Answer: 66%

Question: For “GGGCCTGTCG GGTCCCCTCG GG (GGGCCTGTCGGGTCCCCTCGGG; chemistry not given here) [SEQ. ID. NO. 29]”, which “% p24 production” value [1, 11] is on record?
Answer: 79%

Question: What about the “% p24 production” value [1, 12] of the same molecule?
Answer: 58%

Question: And the “inhibiting p24 production (in words)” value [1]?
Answer: particularly effective

Question: For “GCCTATTCTG CTATGTCGAC ACCCAA (GCCTATTCTGCTATGTCGACACCCAA; chemistry not given here) [SEQ. ID. NO. 35]”, which “% p24 production” value [1, 9] is on record?
Answer: 56%

Question: And the “% p24 production” value [1, 10]?
Answer: 0%

Question: And the inhibition [1]?
Answer: 70-100%

Question: What about the p24 production [1] of the same molecule?
Answer: 0 to 30%

Question: What does the source list for “GAGCTCTTCG TCGCTGTCTC CGCTTCT (GAGCTCTTCGTCGCTGTCTCCGCTTCT; chemistry not given here) [SEQ. ID. NO. 17]”?
Answer: % p24 production [1, 9]: 99%; % p24 production [1, 10]: 56%

Question: What does the source list for `Cc1cn([C@H]2C[C@H](N=[N+]=[N-])[C@@H](CO)O2)c(=O)[nH]c1=O` [AZT, reference compound]?
Answer: IC50 ([2]; Human immunodeficiency virus 1): 3 nM; IC50 ([3]; Human immunodeficiency virus 1): 7 to 20 nM

Question: With “ATTGGTACAA GCAGTTTTAG GCT (ATTGGTACAAGCAGTTTTAGGCT; chemistry not given here) [SEQ. ID. NO. 31]” as the molecule, how does the “% p24 production” value [1, 9] read?
Answer: 100%

Question: And the “% p24 production” value [1, 10]?
Answer: 15%

Question: Which “% p24 production” value [1, 9] does the source give for “CGGGCCTGTC GGGTCCCCTC GGGA (CGGGCCTGTCGGGTCCCCTCGGGA; chemistry not given here) [SEQ. ID. NO. 36]” here?
Answer: 71%

Question: What about the “% p24 production” value [1, 10] of the same molecule?
Answer: 89%

Question: Which “% p24 production” value [1, 12] does the source give for “CTGTCGGGTC CCCTCGGG (CTGTCGGGTCCCCTCGGG; chemistry not given here) [SEQ. ID. NO. 26]” here?
Answer: 44%

Question: And the “inhibiting p24 production (in words)” value [1]?
Answer: particularly effective

Question: What does the source list for “GCCTGTCGGG TCCT (GCCTGTCGGGTCCT; chemistry not given here) [SEQ. ID. NO. 20]”?
Answer: % p24 production [1, 11]: 55%; % p24 production [1, 12]: 42%; inhibiting p24 production (in words) [1]: particularly effective

Question: For “CTTCGGGCCT GTCGGGTCCC CTCGGG (CTTCGGGCCTGTCGGGTCCCCTCGGG; chemistry not given here) [SEQ. ID. NO. 18]”, which IC50 [4] is on record?
Answer: 18 nM

Question: What about the IC50 [5] of the same molecule?
Answer: 2000 to 3000 nM

Question: And the IC50 ([6]; AZT Resistant)?
Answer: 55 nM

Question: What about the IC50 ([6]; AZT Sensitive) of the same molecule?
Answer: 80 nM

Question: And the IC50 ([7]; AZT Resistant)?
Answer: 18 nM

Question: What about the IC50 ([7]; AZT Sensitive) of the same molecule?
Answer: 45 nM

Question: And the HGB ([8]; 0 hr)?
Answer: 16.0 ± 0.2 g/dL

Question: And the PLT ([8]; 0 hr)?
Answer: 111.8 ± 2.7 ×10^4 /μl

Question: What about the RBC ([8]; 0 hr) of the same molecule?
Answer: 1032.3 ± 8.1 ×10^4 /μl

Question: What about the WBC ([8]; 0 hr) of the same molecule?
Answer: 94.7 ± 18.2 ×10^2 /μl

Question: What about the “Body Weight” value ([8]; 24 hours) of the same molecule?
Answer: Unchanged

Question: And the “Morphological findings, Bone Marrow” value ([8]; 24 hours, visual inspection)?
Answer: Normal

Question: And the “Morphological findings, Heart” value ([8]; 24 hours, visual inspection)?
Answer: Normal

Question: And the “Morphological findings, Kidney” value ([8]; 24 hours, visual inspection)?
Answer: Normal

Question: What about the “Morphological findings, Liver” value ([8]; 24 hours, visual inspection) of the same molecule?
Answer: Normal

Question: And the “Morphological findings, Spleen” value ([8]; 24 hours, visual inspection)?
Answer: Slight Splenomegaly

Question: What about the “Morphological findings, Thymus” value ([8]; 24 hours, visual inspection) of the same molecule?
Answer: Normal

Question: What about the HGB ([8]; 24 hr) of the same molecule?
Answer: 15.3 ± 0.5 g/dL

Question: And the PLT ([8]; 24 hr)?
Answer: 99.4 ± 0.9 ×10^4 /μl

Question: What about the RBC ([8]; 24 hr) of the same molecule?
Answer: 990.3 ± 34.3 ×10^4 /μl

Question: What about the WBC ([8]; 24 hr) of the same molecule?
Answer: 79.3 ± 15.3 ×10^2 /μl

Question: And the IC50 [2]?
Answer: 120 nM

Question: What about the “% p24 production” value [1, 9] of the same molecule?
Answer: 55%

Question: What about the “% p24 production” value [1, 10] of the same molecule?
Answer: 0%

Question: What about the inhibition [1] of the same molecule?
Answer: 70-100%

Question: What about the p24 production [1] of the same molecule?
Answer: 0 to 30%

Question: And the IC50 [3]?
Answer: 200 nM

Question: With “GCTTCTTCCT GCCATAGGAG A (GCTTCTTCCTGCCATAGGAGA; chemistry not given here) [SEQ. ID. NO. 33]” as the molecule, how does the “% p24 production” value [1, 9] read?
Answer: 109%

Question: What about the “% p24 production” value [1, 10] of the same molecule?
Answer: 74%

Question: What does the source list for “ATTCTGCTAT GTCGACACCC AA (ATTCTGCTATGTCGACACCCAA; chemistry not given here) [SEQ. ID. NO. 46]”?
Answer: % p24 production [1, 11]: 87%; % p24 production [1, 12]: 81%; inhibiting p24 production (in words) [1]: effective

Question: With “GCCTGTCGGG TCCC (GCCTGTCGGGTCCC; chemistry not given here) [SEQ. ID. NO. 22]” as the molecule, how does the IC50 [5] read?
Answer: 20000 to 30000 nM

Question: What about the “% p24 production” value [1, 11] of the same molecule?
Answer: 3%

Question: And the “% p24 production” value [1, 12]?
Answer: 31%

Question: What about the “inhibiting p24 production (in words)” value [1] of the same molecule?
Answer: particularly effective
